These results are taken from patent US20210260069A1, “IRE1a INHIBITOR IN COMBINATION WITH CANCER [sequence] AGENT FOR CANCER TREATMENT” (Fosun Orinove PharmaTech, Inc., priority 2018, published 2021).

Read-outs that look alike come from different tables or passages of the source.

The subject of data set [1] is human glioblastoma U-87 MG tumor cells. Description: U-87 MG glioblastoma xenograft (Example 19). Type of data set: in vivo, female NCr nu/nu mice. As to the method: Orin 1001 was administered by oral gavage in a xenograft mouse model using female NCr nu/nu mice injected subcutaneously with human glioblastoma U-87 MG tumor cells, a glioblastoma multiforme (GBM) cell line. Animals were assigned to 4 groups (n=6/group); Vehicle control administered by oral gavage for 28 days, Orin 1001 administered via oral gavage at 300 mg/kg/day for 28 consecutive days, paclitaxel administered weekly by iv at 15 mg/kg, or Orin 1001 administered in combination with paclitaxel.
The percent tumor growth delay was calculated using the following equation: TGD (%)=[T-C/C]×100; where T-C is the difference in time to tumor endpoint from Treated (T) and Control (C).
The time to tumor endpoint (TTE) for each animal was further calculated using the following equation: TTE (days)=log 10 (endpoint volume, mm^3)-b/m, where b is the intercept and m is the slope of the line obtained by linear regression of the log-transformed tumor growth data set.

Data set [2] has as its system human breast adenocarcinoma MDA-MB231 tumor cells. Type of data set: in vivo. Particulars: Orin 1001 300 mg/kg where given; paclitaxel 10 mg/kg iv weekly; n=10/group. As to the method: Orin 1001 was administered by oral gavage in combination with paclitaxel in a xenograft mouse model using female NCr nu/nu mice (n=10 in each group) injected subcutaneously with human breast adenocarcinoma MDA-MB231 tumor cells. To evaluate the effect of Orin 1001 in combination with paclitaxel, Orin 1001 was administered via oral gavage at 75, 150 or 300 mg/kg/day in combination with paclitaxel at 10 mg/kg iv, weekly (n=10/group) for up to 60 days.

The subject of data set [3] is human ovarian carcinoma A2780 tumor cells. In words: A2780 ovarian carcinoma xenograft (Example 18). In kind it is in vivo, female NCr nu/nu mice. The conditions noted are these: Orin 1001 300 mg/kg/day oral 28 days; paclitaxel 15 mg/kg iv weekly; endpoint 2000 mm^3 or Day 60. As for the experimental part: Orin 1001 was administered by oral gavage in a xenograft mouse model using female NCr nu/nu mice injected subcutaneously with human ovarian carcinoma A2780 tumor cells. Animals were assigned to 4 groups (n=6/group); Vehicle control administered by oral gavage for 28 days, Orin 1001 administered via oral gavage at 300 mg/kg/day for 28 consecutive days, paclitaxel administered weekly by iv at 15 mg/kg, or Orin 1001 administered in combination with paclitaxel.
The percent tumor growth delay was calculated using the following equation: TGD (%)=[T-C/C]×100, where T-C is the difference in time to tumor endpoint from Treated (T) and Control (C).

In data set [4] the test system is RPMI 8226 cells. In words: XBP1s level induced in RPMI 8226 cells. In kind it is cell-based, human. As for the experimental part:
(§1) Briefly, cells were grown in standard conditions and spread into 96 well tissue culture plates. Cells were treated with compounds with indicated concentration using serial dilutions. DTT (dithiothreitol) or compounds were added at the same time and cells were harvested after indicated hour's treatment. Cells treated with DTT alone were used as 100% XBP1s positive controls and cell left untreated were used as base line XBP1s level.
(§2) Splicing Assay: Total RNA was isolated from cells treated with compounds using Applied Biosystems RNAqueous kit. 1 μg of total RNA was reverse transcribed using Oligo dt (12-18) (Invitrogen). The cDNA was then amplified at 95° C. for 8 min and 30 sec, then 40 cycles at 95° C. for 15 sec and 63° C. for 1 min. Samples were run against a purified standard curve for both spliced and unspliced XBP1, and further normalized to internal house-keeping gene GAPDH.
The same methods were used as above for Lestaurtinib.

Data set [5] relates to XBP1s. Description: Determination of XBP1s level induced by various compounds (RT-qPCR splicing assay), several cell lines. Type of data set: cell-based, human. The conditions noted are these: in a time, cell or concentration dependent manner. As to the method: as §1, with “This method applies to any mammalian cell line but was typically applied to human MM1s myeloma cells for EC50 and RPMI […] plasmacytoma cells for confirmation of selected compounds. Briefly,” for “Briefly,”
as §2

Data set [6] in a line: Oral bioavailability test, rat. Particulars: in vivo, 10 mg/kg dose. As for the experimental part: (§3) All PK experiments are standard tests that performed in either WuXi PharmaTech or Charels River Laboratory. 4315 and 4485 (Orin 1001) were dosed PO as a suspension in 1% microcellulose (Sigma) and 50% Sucrouse (Sigma).
The nature of data set [7]: Oral bioavailability test, mouse. Particulars: in vivo, 5 mg/kg dose. As to the method:
as §3

A short description of data set [8]: Oral bioavailability test, dog. Particulars: in vivo, 10 mg/kg dose. As for the experimental part:
as §3

Data set [9] has as its target T1, IRE1α (Mus musculus, UniProt Q9EQY0).
T1 construct: from tissue; host or cells: liver of BALB/c mice (in vivo)
In words: Liver PD screening assay: XBP-1 splicing analysis of liver after tunicamycin (Example 25). Type of data set: in vivo, BALB/c mice. As for the experimental part:
Example 25 was related to comparative PD/PK data of Orin 1001 VS compound 4315, as its structure shown below, which is an earlier lead of this series of compounds. Tunicamycin was used herein to activate IRE1, then Orin 1001 (also called 4485) or 4315 were given to inhibit the activating effect. […] Each gel panel represents one mouse liver sample as in the figure.
BALB/c mice were injected intraperitoneally with 100 microliters at an equivalent dose of 1 mg/kg tunicamycin solution. Two hours after tunicamycin injection, mice were dosed with compound of interest either PO or IV. Following 2 hours for PO delivery of compound, mice were euthanized according to IACUC protocols using CO2 from a […] source. A 1 cm^3 fragment of the liver for homogenization and extraction of the RNA were collected for further analysis. Total RNA is harvested from cells or tissue using TRIzol according to the manufacturer's procedures. After ethanol precipitation and resuspension of the RNA, RiboGreen (Invitrogen) is used to quantify the yield and normalize the RNA concentration in the source tube containing isolated RNA. RT-PCR is performed by Oligo(dT) priming, and SuperScript II (Invitrogen) transcription using the Amplitaq Gold Kit (Applied Biosystems) according to the manufacturer's protocols. Primers for human XBP-1 are 5_-[…]-3_ (forward, Seq ID No. 8) and 5_-[…]-3_ (reverse, Seq ID No. 9), and for mouse are 5_-[…]-3_ (forward, Seq ID No. 10) and 5_-[…]-3 (Seq ID No. 11). All DNA oligos were purchased from IDT DNA Technologies. PCR is run on a Bio-Rad PTC-100 96-well thermocycler with heating at 94° C. for 30 s, annealing at 58° C. for 30 s, and polymerizing at 72° C. for 30 s for 35 cycles. Reactions are run on 4% precast NuSieve gels from Cambrex and visualized by ethidium bromide staining and UV excitation.
as §3

Where [10] appears, read: Orin 1001 300 mg/kg/day oral 28 days, paclitaxel 15 mg/kg iv weekly, endpoint 2000 mm^3 or Day 60.

T1 sequence (Q9EQY0 21-977): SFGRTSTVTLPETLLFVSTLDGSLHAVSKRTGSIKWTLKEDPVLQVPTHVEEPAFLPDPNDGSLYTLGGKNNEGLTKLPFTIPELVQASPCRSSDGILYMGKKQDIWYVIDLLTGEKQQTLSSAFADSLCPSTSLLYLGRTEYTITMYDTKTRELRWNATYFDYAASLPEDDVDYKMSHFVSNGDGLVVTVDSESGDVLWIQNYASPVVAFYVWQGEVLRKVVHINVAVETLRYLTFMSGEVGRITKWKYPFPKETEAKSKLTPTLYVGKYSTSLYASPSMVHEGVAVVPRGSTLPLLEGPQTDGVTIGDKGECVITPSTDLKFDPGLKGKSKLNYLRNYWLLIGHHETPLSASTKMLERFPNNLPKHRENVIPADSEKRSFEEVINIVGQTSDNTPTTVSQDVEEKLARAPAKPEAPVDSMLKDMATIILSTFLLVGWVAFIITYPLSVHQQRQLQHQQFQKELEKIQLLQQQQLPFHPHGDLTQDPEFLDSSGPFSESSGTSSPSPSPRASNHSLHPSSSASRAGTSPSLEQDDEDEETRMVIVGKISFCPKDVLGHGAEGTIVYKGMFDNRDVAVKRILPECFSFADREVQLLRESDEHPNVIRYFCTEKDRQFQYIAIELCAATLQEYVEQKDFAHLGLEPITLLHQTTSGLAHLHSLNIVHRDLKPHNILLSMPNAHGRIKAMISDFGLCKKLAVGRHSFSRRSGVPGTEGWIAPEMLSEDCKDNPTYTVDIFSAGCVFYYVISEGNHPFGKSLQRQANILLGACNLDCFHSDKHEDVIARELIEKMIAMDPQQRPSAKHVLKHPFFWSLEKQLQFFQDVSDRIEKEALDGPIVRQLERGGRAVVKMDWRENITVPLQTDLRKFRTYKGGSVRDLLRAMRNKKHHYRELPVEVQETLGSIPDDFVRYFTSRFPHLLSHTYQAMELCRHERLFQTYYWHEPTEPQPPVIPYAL

Take `CC(=O)O[C@H]1C(=O)[C@@]2(C)[C@H]([C@H](OC(=O)c3ccccc3)[C@]3(O)C[C@H](OC(=O)[C@H](O)[C@@H](NC(=O)c4ccccc4)c4ccccc4)C(C)=C1C3(C)C)[C@]1(OC(C)=O)CO[C@@H]1C[C@@H]2O` [Paclitaxel]: the “percent tumor growth delay (TGD)” value was determined as 17% in [1] (setting [10]) and 40% in data set [3]. The “time to tumor endpoint (TTE)” value in data set [1] (setting [10]) was 30.2 days. Moreover, the “tumor delay effect over the control” value in [1] (each agent alone) is on record as “not very significant”. For the same compound, in [2], the partial regressions worked out at 1. For the same compound, the “levels of XBP1s” value in [4] (1 hour of treatment) is given as “high levels”; in [4] (2 hours of treatment), “modest levels”; in data set [4] (4 hours of treatment), “modest levels”. In data set [5], the “induction of XBP1s” value is given as “able to induce XBP1s”.

Regarding `Cc1c(-c2ccc(C(=O)NCCN3CCOCC3)cc2)c(=O)oc2c(C=O)c(O)ccc12` [compound 4315], the bioavailability in data set [6] is 36%; in data set [7], 23%; in data set [8], 17%. For the same compound, the ED50 in data set [9] (read-out: ED50 (inhibition of XBP-1 splicing in liver), PO, 2 hours after tunicamycin 1 mg/kg ip, liver 2 hours after dosing, FIG. 23) is over 10 mg/kg; in data set [9] (read-out: ED50 (inhibition of XBP-1 splicing in liver), separate experiment), 50 mg/kg.
